Measurements from patent US20230263809A1, “FOOD SUPPLEMENT FOR ALZHEIMER” (FOLIUM BIOSCIENCES EUROPE B.V., priority 2019, published 2023).

Key:
neurological behaviours = assay: Restoring neurological behaviours on uptake of phytosterols; format: in vivo; settings: uptake of the phytosterol
[1] = Side effects on uptake of phytosterols (compared with synthetic LXRα/β activators); format: in vivo; settings: side effects caused normally by synthetic LXRα/β activators
cholesterol absorption = settings: by competing with cholesterol absorption; cited from earlier work
Amyloid-β deposits = settings: in vivo; cited from earlier work

SMILES	restore neurological behaviours (neurological behaviours)	side effects [1]	cholesterol lowering effect (cholesterol absorption)	removal of the toxic clumps of Amyloid-β deposits in the brain (Amyloid-β deposits)
C=CC(O)(CC[C@@H](C)[C@H]1CC[C@H]2[C@@H]3CC=C4C[C@@H](O)CC[C@]4(C)[C@H]3CC[C@]12C)C(C)C (stereo partly drawn) [24(S)-Saringosterol]	help restore neurological behaviours	without registering any side effects	–	–
C/C=C(\CC[C@@H](C)[C@H]1CC[C@H]2[C@@H]3CC=C4C[C@@H](O)CC[C@]4(C)[C@H]3CC[C@]12C)C(C)C [Fucosterol]	help restore neurological behaviours	without registering any side effects	shows a cholesterol lowering effect	–
CCCCCc1cc(O)c2c(c1)OC(C)(C)[C@@H]1CCC(C)=C[C@@H]21 [THC, Δ^9-tetrahydrocannabidiol]	–	–	–	promote the removal of the toxic clumps of Amyloid-β deposits
